Measured values as given in ChEMBL document CHEMBL1136189, “Thiourea inhibitors of herpes viruses. Part 1: bis-(aryl)thiourea inhibitors of CMV” (Bioorg Med Chem Lett, 2003).
Values after ≈ are worked out from the molar mass of the structure shown.

What was measured:
Human alphaherpesvirus 3 = test: Inhibitory concentration against Varicella zoster virus (VZV); type: functional, organism-based
Human alphaherpesvirus 2 = test: Inhibitory concentration against Herpes simplex virus (HSV); type: functional, organism-based
Human betaherpesvirus 5 = test: Inhibitory concentration against human cytomegalovirus (CMV) in cultured human foreskin fibroblast (HFF) cells; type: functional, organism-based; conditions: Human betaherpesvirus 5, HFF
[1] = MTS cellular toxicity was determined; type: functional

| SMILES | IC50 (Human alphaherpesvirus 3) [µg/mL] | IC50 (Human alphaherpesvirus 2) [µg/mL] | IC50 (Human betaherpesvirus 5) [µg/mL] | Activity [1] [µg/mL] |
| --- | --- | --- | --- | --- |
| Cc1ccc(N/C(S)=N/c2ccc(NC(=O)c3ccco3)cc2)cc1Cl | > 10 | > 10 | 0.09 (≈ 0.233 µM) |  |
| COc1cc(OC)c(N/C(S)=N/c2ccc(NC(=O)c3ccco3)cc2C)cc1Cl | > 10 | > 10 | 0.6 (≈ 1.35 µM) |  |
| O=C(Nc1ccc(/N=C(\S)Nc2ccc(F)c(Cl)c2)cc1)c1ccco1 | > 10 | > 10 | 0.06 (≈ 0.154 µM) |  |
| O=C(Nc1ccc(/N=C(\S)Nc2cc(C(F)(F)F)cc(C(F)(F)F)c2)cc1)c1ccco1 | 7 (≈ 14.8 µM) | > 10 | 0.04 (≈ 0.0845 µM) |  |
| O=C(Nc1ccc(/N=C(\S)Nc2ccc(C(F)(F)F)c(Cl)c2)cc1)c1cocn1 | > 10 | > 10 | 0.02 (≈ 0.0454 µM) |  |
| COc1cc(OC)c(N/C(S)=N/c2cc(OC)c(NC(=O)c3ccco3)cc2OC)cc1Cl | 4 (≈ 8.13 µM) | > 10 | > 10 |  |
| COc1cc(OC)c(N/C(S)=N/c2ccc(NC(C)=O)cc2)cc1Cl | > 10 | 3 (≈ 7.9 µM) | 45 (≈ 118 µM) | >10 |
| COc1cc(OC)c(N/C(S)=N/c2ccc(NC(=O)c3ccccc3)cc2)cc1Cl | > 10 | 0.3 (≈ 0.679 µM) | 4 (≈ 9.05 µM) | >10 |
| O=C(Nc1ccc(/N=C(\S)Nc2cc(C(F)(F)F)cc(C(F)(F)F)c2)cc1)c1csnn1 | > 10 | > 10 | 0.02 (≈ 0.0407 µM) |  |
| O=C(Nc1ccc(/N=C(\S)Nc2ccc(Cl)c(C(F)(F)F)c2)cc1)c1ccco1 | > 10 | > 10 | 0.03 (≈ 0.0682 µM) |  |
| O=C(Nc1ccc(/N=C(\S)Nc2cccc(C(F)(F)F)c2)cc1)c1ccco1 | > 10 | > 10 | 0.06 (≈ 0.148 µM) |  |
| O=C(Nc1ccc(/N=C(\S)Nc2cc(C(F)(F)F)cc(C(F)(F)F)c2)cc1)c1cocn1 | > 10 | > 10 | 0.03 (≈ 0.0632 µM) |  |
| COc1cc(OC)c(N/C(S)=N/c2ccc(NC(=O)c3ccco3)c(C)c2)cc1Cl | > 10 | > 10 | > 10 | >10 |
| O=C(Nc1ccc(/N=C(\S)Nc2ccc(C(F)(F)F)c(Cl)c2)cc1)c1ccccn1 | > 10 | > 10 | > 10 |  |
| O=C(Nc1ccc(NC(=S)Nc2ccccc2)cc1)c1ccco1 | > 10 | > 10 | 0.3 (≈ 0.889 µM) |  |
| COc1cc(OC)c(N/C(S)=N/c2ccc(NC(=O)c3ccco3)cc2C(F)(F)F)cc1Cl | > 10 | 2.5 (≈ 5 µM) | 2 (≈ 4 µM) | >10 |
| COc1cc(OC)c(N/C(S)=N/c2ccc(NC(=O)c3ccco3)cc2C#N)cc1Cl | > 10 | > 10 | > 10 | >10 |
| COc1cc(OC)c(N/C(S)=N/c2ccc(NC(=O)c3ccco3)cc2)cc1Cl | > 10 | > 10 | 0.2 (≈ 0.463 µM) | >10 |
| CCC(=O)Nc1ccc(N/C(S)=N/c2cc(Cl)c(OC)cc2OC)cc1 | > 10 | 3 (≈ 7.62 µM) |  | >10 |
| Cc1cccc(N/C(S)=N/c2ccc(NC(=O)c3ccco3)cc2)c1 | > 10 | > 10 | 0.06 (≈ 0.171 µM) |  |
| COc1cc(OC)c(N/C(S)=N/c2ccc(NC(=O)c3ccco3)c(OC)c2)cc1Cl | > 10 | 8 (≈ 17.3 µM) | > 10 |  |
| O=C(Nc1ccc(/N=C(\S)Nc2cc(C(F)(F)F)cc(C(F)(F)F)c2)cc1)c1cscn1 | > 10 | > 10 | 0.008 (≈ 0.0163 µM) |  |
| O=C(Nc1ccc(/N=C(\S)Nc2ccc(C(F)(F)F)c(Cl)c2)cc1)c1cscn1 | > 10 | > 10 | 0.006 (≈ 0.0131 µM) |  |
